In US20210254056A1, “IDENTIFICATION AND TARGETED MODULATION OF GENE SIGNALING NETWORKS” (CAMP4 THERAPEUTICS CORPORATION, priority 2017, published 2021):

System: hepatocytes
Test: RNA-seq of hepatocytes treated with Phase III failure compounds
Conditions: hepatocytes
Experimental: RNA-seq was performed to determine the effects of the compounds on hepatocytes.
Significance was determined by the criteria of FPKM≥0.5, a log 2(fold-change)≥1, and a […].

CCC(CC)[C@H](NC(C)=O)[C@@H]1[C@H](O)[C@@H](C(=O)O)C[C@H]1NC(=N)N.O.O.O [peramivir (trihydrate), peramivir]
RNA-seq results, PTRH2 (gene PTRH2): 0.15 | RNA-seq results: PTRH2 (gene PTRH2): −0.47 | RNA-seq results, PUS1 (gene PUS1): 0.16 | RNA-seq results: PUS1 (gene PUS1): 0.29 | RNA-seq results, PXMP2 (gene PXMP2): 0.19 | RNA-seq results: PXMP2 (gene PXMP2): −0.29 | RNA-seq results, PXMP4 (gene PXMP4): 0.22 | RNA-seq results: PXMP4 (gene PXMP4): −0.05 | RNA-seq results, RAI1 (gene RAI1): 0.12 | RNA-seq results: RAI1 (gene RAI1): 0.38 | RNA-seq results, RANBP2 (gene RANBP2): −0.29 | RNA-seq results: RANBP2 (gene RANBP2): −0.16 | RNA-seq results, RASA1 (gene RASA1): −0.13 | RNA-seq results: RASA1 (gene RASA1): −0.26 | RNA-seq results, RBCK1 (gene RBCK1): 0.64 | RNA-seq results: RBCK1 (gene RBCK1): 0.26 | RNA-seq results, RBM10 (gene RBM10): 0.13 | RNA-seq results: RBM10 (gene RBM10): 0.11 | RNA-seq results, REN (gene REN): 0 | RNA-seq results: REN (gene REN): 0.46 | RNA-seq results, RMND1 (gene RMND1): −0.07 | RNA-seq results: RMND1 (gene RMND1): −0.47 | RNA-seq results, RMRP (gene RMRP): 0.54 | RNA-seq results: RMRP (gene RMRP): −1.76 | RNA-seq results, RNASEH2A (gene RNASEH2A): 0.54 | RNA-seq results: RNASEH2A (gene RNASEH2A): −0.19 | RNA-seq results, RORC (gene RORC): 0.4 | RNA-seq results: RORC (gene RORC): 0.58 | RNA-seq results, RPGRIP1L (gene RPGRIP1L): −0.2 | RNA-seq results: RPGRIP1L (gene RPGRIP1L): −0.12 | RNA-seq results, RRM2B (gene RRM2B): −0.53 | RNA-seq results: RRM2B (gene RRM2B): −0.34 | RNA-seq results, RSAD1 (gene RSAD1): 0.1 | RNA-seq results: RSAD1 (gene RSAD1): 0.11 | RNA-seq results, SAMHD1 (gene SAMHD1): −0.29 | RNA-seq results: SAMHD1 (gene SAMHD1): −0.43 | RNA-seq results, SC5D (gene SC5D): 0.05 | RNA-seq results: SC5D (gene SC5D): −0.56 | RNA-seq results, SCARB1 (gene SCARB1): 0.12 | RNA-seq results: SCARB1 (gene SCARB1): 0.11 | RNA-seq results, SCN9A (gene SCN9A): −0.56 | RNA-seq results: SCN9A (gene SCN9A): −0.09 | RNA-seq results, SDCCAG8 (gene SDCCAG8): −0.12 | RNA-seq results: SDCCAG8 (gene SDCCAG8): −0.10 | RNA-seq results, SEPN1 (gene SEPN1): 0.26 | RNA-seq results: SEPN1 (gene SEPN1): −0.02 | RNA-seq results, SERAC1 (gene SERAC1): −0.1 | RNA-seq results: SERAC1 (gene SERAC1): −0.34 | RNA-seq results, SERPINA1 (gene SERPINA1): −0.03 | RNA-seq results: SERPINA1 (gene SERPINA1): −0.16 | RNA-seq results, SERPING1 (gene SERPING1): 0.12 | RNA-seq results: SERPING1 (gene SERPING1): −0.27 | RNA-seq results, SERPINI1 (gene SERPINI1): −0.33 | RNA-seq results: SERPINI1 (gene SERPINI1): −0.37 | RNA-seq results, SETBP1 (gene SETBP1): −0.1 | RNA-seq results: SETBP1 (gene SETBP1): 0.05 | RNA-seq results, SFXN4 (gene SFXN4): 0.09 | RNA-seq results: SFXN4 (gene SFXN4): −0.17 | RNA-seq results, SLC2A1 (gene SLC2A1): 0.56 | RNA-seq results: SLC2A1 (gene SLC2A1): 0.08 | RNA-seq results, SLC2A2 (gene SLC2A2): −0.62 | RNA-seq results: SLC2A2 (gene SLC2A2): −0.24 | RNA-seq results, SLC2A9 (gene SLC2A9): 0.24 | RNA-seq results: SLC2A9 (gene SLC2A9): 0.16 | RNA-seq results, SLC4A4 (gene SLC4A4): −0.08 | RNA-seq results: SLC4A4 (gene SLC4A4): −0.30 | RNA-seq results, SLC6A6 (gene SLC6A6): 0.1 | RNA-seq results: SLC6A6 (gene SLC6A6): −0.29 | RNA-seq results, SLC6A8 (gene SLC6A8): 0.26 | RNA-seq results: SLC6A8 (gene SLC6A8): 0.27 | RNA-seq results, SLC6A20 (gene SLC6A20): 0.4 | RNA-seq results: SLC6A20 (gene SLC6A20): −0.44 | RNA-seq results, SLC7A7 (gene SLC7A7): −0.01 | RNA-seq results: SLC7A7 (gene SLC7A7): 0.03 | RNA-seq results, SLC10A1 (gene SLC10A1): −0.05 | RNA-seq results: SLC10A1 (gene SLC10A1): −0.14 | RNA-seq results, SLC10A3 (gene SLC10A3): 0.11 | RNA-seq results: SLC10A3 (gene SLC10A3): 0.57 | RNA-seq results, SLC10A5 (gene SLC10A5): −0.66 | RNA-seq results: SLC10A5 (gene SLC10A5): 0.46 | RNA-seq results, SLC10A7 (gene SLC10A7): −0.13 | RNA-seq results: SLC10A7 (gene SLC10A7): −0.54 | RNA-seq results, SLC11A2 (gene SLC11A2): 0.08 | RNA-seq results: SLC11A2 (gene SLC11A2): 0.04 | RNA-seq results, SLC19A1 (gene SLC19A1): 0.2 | RNA-seq results: SLC19A1 (gene SLC19A1): 0.05 | RNA-seq results, SLC19A2 (gene SLC19A2): 0.09 | RNA-seq results: SLC19A2 (gene SLC19A2): −0.17 | RNA-seq results, SLC19A3 (gene SLC19A3): 0 | RNA-seq results: SLC19A3 (gene SLC19A3): −0.16 | RNA-seq results, SLC22A1 (gene SLC22A1): 0.13 | RNA-seq results: SLC22A1 (gene SLC22A1): −0.12 | RNA-seq results, SLC22A5 (gene SLC22A5): 0.12 | RNA-seq results: SLC22A5 (gene SLC22A5): −0.16 | RNA-seq results, SLC25A1 (gene SLC25A1): 0.16 | RNA-seq results: SLC25A1 (gene SLC25A1): 0.33 | RNA-seq results, SLC25A10 (gene SLC25A10): 0.09 | RNA-seq results: SLC25A10 (gene SLC25A10): 0.12 | RNA-seq results, SLC25A12 (gene SLC25A12): 0.29 | RNA-seq results: SLC25A12 (gene SLC25A12): 0.27 | RNA-seq results, SLC25A13 (gene SLC25A13): 0.11 | RNA-seq results: SLC25A13 (gene SLC25A13): −0.17 | RNA-seq results, SLC25A15 (gene SLC25A15): −0.01 | RNA-seq results: SLC25A15 (gene SLC25A15): 0.03 | RNA-seq results, SLC25A19 (gene SLC25A19): −0.01 | RNA-seq results: SLC25A19 (gene SLC25A19): −0.19 | RNA-seq results, SLC25A20 (gene SLC25A20): −0.1 | RNA-seq results: SLC25A20 (gene SLC25A20): −0.32 | RNA-seq results, SLC25A29 (gene SLC25A29): 0.22 | RNA-seq results: SLC25A29 (gene SLC25A29): 0.65 | RNA-seq results, SLC25A32 (gene SLC25A32): −0.09 | RNA-seq results: SLC25A32 (gene SLC25A32): −0.32 | RNA-seq results, SLC27A2 (gene SLC27A2): −0.21 | RNA-seq results: SLC27A2 (gene SLC27A2): −0.36 | RNA-seq results, SLC27A5 (gene SLC27A5): 0.25 | RNA-seq results: SLC27A5 (gene SLC27A5): 0.13 | RNA-seq results, SLC29A3 (gene SLC29A3): 0.07 | RNA-seq results: SLC29A3 (gene SLC29A3): −0.02 | RNA-seq results, SLC33A1 (gene SLC33A1): 0.02
